Measurements taken from patent US20220054447A1, “CANNABIS COMPOSITIONS AND METHODS” (priority 2018, published 2022).
Marks after values point to notes of the source that are not given here.

What was measured:
[1] = 9-month stability of dried cannabis drug stored in a vault (not under nitrogen); format: physicochemical; design: Analyte content, Nov. 17, 2016: unit not given beside the values; settings: for % Change from Day 0: 9-month storage, <0.05 assumed to be 0.05 for calculation; for Analyte content, Aug. 10, 2017 / Analyte content, Nov. 17, 2016: dried cannabis drug stored in a vault, not under nitrogen; for Analyte content, Aug. 10, 2017: 9 months; for Analyte content, Nov. 17, 2016: Day 0
Text: A schematic depicting the production of exemplary cannabinoic acids and subsequent transformation to the related neutral form by conditions such as oxidation, heat and time is shown in FIG. 3.

[2] = cited from earlier work; for log P (octanol/water partition coefficient): United Nations Office on Drugs and Crime, 2009
[3] = Dose uniformity of pellets; format: physicochemical
Text: The dose uniformity studies show improvement subsequent to optimization of the blending process. […] After optimizing the process, the dose uniformity for clinical batches was 5.59% and 5.13% for THC and THCA, respectively.

[4] = Phase 1 clinical batch, before optimization of blending
[5] = clinical batches after optimizing the process

| Structure (SMILES) | % Change from Day 0 [1] | Analyte content, Aug. 10, 2017 [1] | Analyte content, Nov. 17, 2016 [1] | log P (octanol/water partition coefficient) [2] | Solubility in ethanol [2] | Solubility in water [2] | Dose uniformity, % variability [3, 4] | Dose uniformity, % variability [3, 5] | Stability ([2]; pure THC, Mechoulam 1970, NIH 1996) |
| --- | --- | --- | --- | --- | --- | --- | --- | --- | --- |
| C=C(C)[C@@H]1CCC(C)=C[C@H]1c1c(O)cc(CCCCC)cc1O [CBD, cannabidiol, reference compound] | 1260% | 0.68 | <0.05* | 5.79 | soluble in ethanol | not soluble in water | – | – | – |
| CCCCCc1cc(O)c(C/C=C(\C)CCC=C(C)C)c(O)c1C(=O)O [CBGA, cannabigerolic acid] | – | 0.26 | 0.37 | – | – | – | – | – | – |
| CCCCCc1cc(O)c(C/C=C(\C)CCC=C(C)C)c(O)c1 [CBG, cannabigerol] | 140% | 0.12 | <0.05* | – | – | – | – | – | – |
| C=C(C)[C@@H]1CCC(C)=C[C@H]1c1c(O)cc(CCCCC)c(C(=O)O)c1O [CBDA, cannabidiolic acid] | 33.9% | 2.03 | 3.07 | – | – | – | – | – | – |
| CCCCCc1cc2c(c(O)c1C(=O)O)[C@@H]1C=C(C)CC[C@H]1C(C)(C)O2 [THCA, tetrahydrocannabinolic acid] | – | 6.02 | 9.68 | – | – | – | 15.07% | 5.13% | – |
| CCCCCc1cc(O)c2c(c1)OC(C)(C)[C@@H]1CCC(C)=C[C@@H]21 [THC, tetrahydrocannabinol, reference compound] | 733% | 1.75 | 0.21 | 6.99 | – | – | 12.82% | 5.59% | unstable in air, light, and at high temperatures |
